In ChEMBL document CHEMBL1147595, “Design and synthesis of photoactivatable aryl diketo acid-containing HIV-1 integrase inhibitors as potential affinity probes” (Bioorg Med Chem Lett, 2004):
Where “and” joins values, the source holds several entries; their conditions need not be identical. Equal values may be shown once.

Columns and labels:
[1] = biological target: T1, Human immunodeficiency virus type 1 integrase (Human immunodeficiency virus 1, UniProt Q7ZJM1); assay: Inhibition of Integrase (strand transfer) as measured in an in vitro assay
T1 sequence (Q7ZJM1 whole entry): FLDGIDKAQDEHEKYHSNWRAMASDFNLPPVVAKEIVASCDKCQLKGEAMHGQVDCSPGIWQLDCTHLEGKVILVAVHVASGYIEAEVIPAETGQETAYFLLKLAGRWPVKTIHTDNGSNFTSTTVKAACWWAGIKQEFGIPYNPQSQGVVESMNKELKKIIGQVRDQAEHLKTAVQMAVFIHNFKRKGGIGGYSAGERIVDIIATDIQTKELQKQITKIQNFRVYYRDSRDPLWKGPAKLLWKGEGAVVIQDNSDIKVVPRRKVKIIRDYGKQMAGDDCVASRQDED

[2] = biological target: T1, Human immunodeficiency virus type 1 integrase; assay: Inhibition of integrase catalyzed strand transfer (ST) as measured in an in vitro assay
[3] = biological target: T1, Human immunodeficiency virus type 1 integrase; assay: Inhibition of Integrase catalyzed strand transfer (ST) as measured in an in vitro assay
[4] = biological target: T1, Human immunodeficiency virus type 1 integrase; assay: Inhibition of Integrase (3'-processing) as measured in an in vitro assay

| IC50 [1] | IC50 [2] | IC50 [3] | IC50 [4] | SMILES |
| --- | --- | --- | --- | --- |
| < 0.1 µM |  |  |  | O=C(O)C(=O)CC(=O)c1cccc(Cc2ccccc2)c1 |
|  | 2.7 µM | 2.1 µM | > 100 µM | O=C(O)C(=O)CC(=O)c1cccc(C(=O)c2ccccc2)c1 |
|  |  | 5.3 µM and 5.2 µM | > 100 µM | [N-]=[N+]=Nc1cccc(C(=O)CC(=O)C(=O)O)c1 |
|  |  | 19 µM and 29 µM | > 100 µM | O=C(O)C(=O)CC(=O)c1cccc(OCc2ccc(C(=O)c3ccccc3)cc2)c1 |
